# How the values were obtained:
# [1] = target: T1, Cathepsin L (Homo sapiens, UniProt P07711); assay: Ki against cathepsin L (Z-FR-AMC); type: biochemical; details: SigmaPlot at 3 different substrate concentrations; pH 5.5
# T1 construct: made in house; host or cells: E. coli
# Protocol: Recombinant or native human cathepsins were used: recombinant cathepsin X and cathepsin S were expressed in Pichia pastoris, recombinant cathepsins B and L in E. coli, [43], native cathepsin H was isolated from human liver. Assay buffers for determining activities of cathepsins X and L consisted of 100 mM sodium acetate buffer, pH 5.5, for cathepsins H, S and B (endopeptidase activity) of 100 mM phosphate buffer pH 6.8, 6.5 and 6.0, respectively and for cathepsin B (exopeptidase activity) of 60 mM acetate buffer pH 5.0. Each assay buffer contained 0.01% Triton X-100 to prevent false positive inhibition due to aggregation of compounds[45], 5 mM cysteine, 1.5 mM EDTA and 0.1% PEG 8000. Enzymes were activated at 37 °C for 5 min before the assays.
# Ki was determined by measuring the initial rate of hydrolysis at three different substrate concentrations (Supplementary Table S2) in the presence of seven different compound concentrations (0, 20, 40, 60, 80, 100 and 200 μM). 90 μL of the activated cathepsin was added to a black 96-well plate with 5 μL of the substrate and 5 μL of the compound. Formation of the fluorescent degradation product was monitored continuously at 460 nm ± 10 nm with excitation at 380 nm ± 20 nm (for AMC substrates) and, as noted above for Abz substrates, at 37 °C. All measurements were performed twice and in duplicate. The resulting data were analyzed by non-linear regression using the software SigmaPlot®, Enzyme Kinetics Module™ 1.3 and were fitted to the equation v = v max [S]/([S] (1 + [I]/αK i ) + K m (1 + [I]/K i )) (first group of compounds). For Ki determination against cathepsin X for the compounds from the second group, progress curves in the absence and presence of each putative inhibitor were fitted to the reaction mechanism presented in Fig. 3b. In this case the resulting data as well as reactivation curves were fitted to the equation system presented in Fig. 3c using ENZO application. For calculation of kinetic parameters from reaction progress curves the fluorescence coefficient for conversion of arbitrary fluorescence units to concentration was first determined. The fluorescence coefficient was calculated as the slope from the plot of initial substrate concentration vs. height of the plateau of the progress curve after complete hydrolysis of increasing concentrations of substrate, using linear regression.
# Supplementary Table S2. Substrates used for the various cathepsins and their concentrations […]
# Enzyme Substrate Concentration (µM) Reference/Company cathepsin X Abz-FEK(Dnp)-OH 3.25, 6.5, 13 Puzer et al.3 cathepsin B - endopept. Z-RR-AMC 60, 180, 360 Bachem cathepsin B - exopept. Abz-GIVRAK(Dnp)-OH 1, 3, 6 Bachem cathepsin S Z-VVR-AMC 0.5, 1, 1.5 Biomol cathepsin L Z-FR-AMC 0.5, 1, 4 Bachem cathepsin H Z-R-AMC 20, 80, 160 Biomol […]
# [2] = target: T2, cathepsin X in PC-12 cell lysates (Rattus norvegicus, UniProt Q9R1T3); assay: Cathepsin X activity in PC-12 cell lysates; type: cell-based; details: 10 μM
# T2 construct: endogenous in cells; host or cells: PC-12
# Protocol: To detect cathepsin X activity in cell lysates, 95 μL of activated cell lysates (0.2 mg/mL total protein in assay buffer) were added to a black 96-well plate containing 5 μL of the substrate. The further procedure was the same as above. In some experiments lysates of non-treated cells were pre-incubated with 10 μM of compounds for 30 minutes and then activity was measured as described above.
# For testing the enzyme activity in cell lysates, cells were treated with 10 μM of compounds. After 24 hours lysates were prepared in 50 mM Na acetate buffer pH 5.5 with 1 mM EDTA, 100 mM NaCl and 0.25% Triton X-100. Total protein concentration was determined by DC Protein Assay (Bio Rad) according to the instructions.
# [3] = system: PC-3 cells; assay: Cellular uptake and retention by LC-MS/MS; type: in vitro ADME, human; details: 50 µM, after 1 hour
# Protocol: Evaluation of cellular uptake and retention of compound 22: sample preparation and LC- […]
# PC-3 cells were treated for 1 hour with compound 22 (50 µM). Cells were washed twice with cold PBS, trypsinized, washed once more and centrifuged. A pellet of cells was resuspended in 200 µL of PBS (or in 200 µL of PBS containing 5µM inhibitor for standard addition) and transferred to 1.5 mL Eppendorf vials prefilled with 0.1 mm and 0.5 mm glass beads (NextAdvance, USA). All cell samples were then homogenized with a BulletBlender (NextAdvance, USA) for 5 min at speed setting »6«. […]
# (2.30;50), (2.50;50), (2.6;5). […] ESI Jetstream parameters were set as follows: drying gas temperature 275 °C, drying gas flow 5 L/min, nebulizer 45 psi, sheath gas temperature 320 °C, sheath gas flow 11 L/min, capillary entrance voltage 4000 V and nozzle voltage 1000 V. Quadrupoles Q1 and Q3 were set at the widest resolution (2.5 amu) and multiple reaction monitoring (MRM) mass transitions used for the quantification of recorded traces are presented in Supplementary Table S4. […]
# PC-3 cell lysate was diluted in cathepsin X assay buffer (1 mg/ml protein concentration). […] After blocking with 5% skimmed milk powder in TBS with 0.05% Tween 20, membrane was incubated with streptavidin-HRP (1:5000; Jackson ImmunoResearch) for 1 hour and proteins were detected with […]
# T2 sequence (Q9R1T3 64-306): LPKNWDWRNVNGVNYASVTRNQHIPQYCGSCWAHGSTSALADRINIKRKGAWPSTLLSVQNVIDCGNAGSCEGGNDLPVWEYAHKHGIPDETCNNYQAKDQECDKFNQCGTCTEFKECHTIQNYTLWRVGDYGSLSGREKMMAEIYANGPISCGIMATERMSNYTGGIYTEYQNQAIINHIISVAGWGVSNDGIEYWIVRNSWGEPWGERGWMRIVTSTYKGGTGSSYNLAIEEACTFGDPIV
# T1 sequence (P07711 114-333): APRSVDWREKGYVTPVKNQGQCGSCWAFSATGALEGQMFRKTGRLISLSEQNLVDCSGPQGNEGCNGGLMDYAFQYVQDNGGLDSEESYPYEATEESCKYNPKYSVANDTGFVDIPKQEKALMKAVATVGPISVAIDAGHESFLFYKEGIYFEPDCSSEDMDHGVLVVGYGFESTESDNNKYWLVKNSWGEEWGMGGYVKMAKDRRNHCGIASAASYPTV
smiles,measurement,setting,value
"CC(C)n1cnnc1SCC(=O)c1ccc2c(c1)OCCO2 [Compound 22, 1-(2,3-Dihydrobenzo[b][1,4]dioxin-6-yl)-2-((4-isopropyl-4H-1,2,4-triazol-3-yl)thio)ethan-1-one]",Ki Cathepsin L,[1],n.i.
same,inhibition of cathepsin X activity in PC-12 cell lysates,[2],most potent
same,% of 22 in the cell media,[3],84%
